Test [1] relates to L6-myotubes. In words: Measurement of intracellular cAMP levels (alpha screen cAMP kit) in differentiated cells, compared to isoproterenol. The format is cell-based. To be noted: 0.25 h, compound at 10 μM vs isoproterenol at 10 μM, 15 min stimulation, read-out: Biological example 2: intracellular cAMP level activity compared to that of isoproterenol. Here is the method: (§1) L6-myoblasts were grown in Dulbecco's Modified Eagle's Medium (DMEM) containing 1 g/L glucose supplemented with 10% fetal bovine serum, 2 mM L-Glutamine, 50 U/mL penicillin, […] streptomycin and 10 mM HEPES. Cells were plated at 1×10^5 cells per mL in 24-well plates. After reaching 90% confluence the cells were grown in medium containing 2% FBS for 7 days where upon cells differentiated into myotubes.
Differentiated cells were serum-starved overnight and stimulated with an agonist, final concentration 1×10^−5 M, for 15 min in stimulation buffer (HBSS supplemented with 1% BSA, 5 mM HEPES and 1 mM IBMX, pH 7.4). The medium was aspirated and 100 μL of 95% EtOH was added to each well of the 24-well plate and cells were kept at −20° C. overnight. The EtOH was allowed to evaporate and 500 μL of lysis buffer (1% BSA, 5 mM HEPES and 0.3% Tween-20, pH 7.4) was added to each well. The plate was kept at −80° C. for 30 min and then at −20° C. until the day of detection when the samples were thawed. Intracellular cAMP levels were detected using an alpha screen cAMP kit (6760635D from Perkin Elmer). The activity for each compound is compared to that of isoproterenol.

In test [2] the test system is L6-myotubes. In words: Glucose uptake (3H-2-deoxyglucose) in differentiated L6-myotubes, compared to isoproterenol. The format is cell-based. To be noted: compound at 10 μM vs isoproterenol at 10 μM, read-out: Biological example 1: glucose uptake activity compared to that of isoproterenol. Here is the method:
as §1
Differentiated L6-myotubes were serum-starved overnight in medium containing 0.5% fatty-acid free BSA and stimulated with an agonist, with a final concentration of 1×10^−5 M. After 1 h 40 min the cells were washed with warm glucose free medium or PBS twice and another portion of agonist was added to the glucose free medium. After 20 min the cells were exposed to 50 nM ^3H-2-deoxyglucose for another 10 min before washed in ice cold glucose free medium or PBS three times and lysed in 400 μL/well 0.2 M NaOH for 1 h at 60° C. The cell lysate was mixed with 4 mL scintillation buffer (Emulsifier Safe, Perkin Elmer) and the radioactivity was detected in a p-counter (Tri-Carb 4810TR, Perkin Elmer). The activity for each compound is compared to that of isoproterenol.

Structures are written as SMILES. Structures can show the parent of a compound that is named as a salt.

For `CC(C)(C[C@@H]1CCCN(C(=O)OC(C)(C)C)C1)NC[C@H](O)c1cccc(F)c1` [Example 1, tert-Butyl (S)-3-(2-(((R)-2-(3-fluorophenyl)-2-hydroxyethyl)amino)-2-methypropyl)piperidine-1-carboxylate acetate], the Emax at 10 µM in test [1] and in test [2] was more than 75% throughout.
For `CC(C)(C[C@@H]1CCCNC1)NC[C@H](O)c1cccc(F)c1` [Example 2, (R)-1-(3-Fluorophenyl)-2-((2-methyl-1-((S)-piperidin-3-yl)propan-2-yl)amino)ethan-1-ol], the Emax at 10 µM in test [1] was 25 to 50%; in test [2], more than 75%.
The matching figures for `CC(=O)N1CCC[C@@H](CC(C)(C)NC[C@H](O)c2cccc(F)c2)C1` [Example 3, 1-((S)-3-(2-(((R)-2-(3-Fluorophenyl)-2-hydroxyethyl)amino)-2-methylpropyl)piperidin-1-yl)ethan-1-one hydrochloride]: 50 to 75% and more than 75%.
The matching figures for `CC(C)(C[C@@H]1CCCN(S(C)(=O)=O)C1)NC[C@H](O)c1cccc(F)c1` [Example 4, (R)-1-(3-Fluorophenyl)-2-((2-methyl-1-((S)-1-(methylsulfonyl)-piperidin-3-yl)propan-2-yl)amino)ethan-1-ol hydrochloride]: 25 to 50% and 50 to 75%.
For the compound `CC(C)(C[C@@H]1CCCN(C(=O)C(C)(C)C)C1)NC[C@H](O)c1cccc(F)c1` [Example 5, 1-((S)-3-(2-(((R)-2-(3-Fluorophenyl)-2-hydroxyethyl)amino)-2-methylpropyl)piperidin-1-yl)-2,2-dimethylpropan-1-one], the Emax at 10 µM in test [1] is less than 25%; in test [2] it was 50 to 75%.
For the compound `CC(C)(C[C@@H]1CCCN(C(=O)C(F)(F)F)C1)NC[C@H](O)c1cccc(F)c1` [Example 6, 2,2,2-Trifluoro-1-((S)-3-(2-(((R)-2-(3-fluorophenyl)-2-hydroxyethyl)-amino)-2-methylpropyl)piperidin-1-yl)ethan-1-one], the Emax at 10 µM in test [1] was less than 25%; in test [2] it was more than 75%.
For `COC(=O)N1CCC[C@@H](CC(C)(C)NC[C@H](O)c2cccc(F)c2)C1` [Example 7, Methyl (S)-3-(2-(((R)-2-(3-fluorophenyl)-2-hydroxyethyl)amino)-2-methylpropyl)piperidine-1-carboxylate], in that order: 50 to 75% and more than 75%.
The matching figures for `CN(C)C(=O)N1CCC[C@@H](CC(C)(C)NC[C@H](O)c2cccc(F)c2)C1` [Example 8, (S)-3-(2-(((R)-2-(3-Fluorophenyl)-2-hydroxyethyl)amino)-2-methyl-propyl)-N,N-dimethylpiperidine-1-carboxamide]: less than 25% and more than 75%.
For `CNC(=O)N1CCC[C@@H](CC(C)(C)NC[C@H](O)c2cccc(F)c2)C1` [Example 9, (S)-3-(2-(((R)-2-(3-Fluorophenyl)-2-hydroxyethyl)amino)-2-methyl-propyl)-N-methylpiperidine-1-carboxamide hydrochloride], in that order: 25 to 50% and more than 75%.
For the compound `CN1CCC[C@@H](CC(C)(C)NC[C@H](O)c2cccc(F)c2)C1` [Example 10, (R)-1-(3-Fluorophenyl)-2-((2-methyl-1-((S)-1-methylpiperidin-3-yl)-propan-2-yl)amino)ethan-1-ol], the Emax at 10 µM in test [1] was less than 25%; in test [2] it was more than 75%.
Turning to `CC(C)(C[C@@H]1CCCN(C(=O)OC(C)(C)C)C1)NC[C@H](O)c1cncc(F)c1` [Example 11, tert-Butyl (S)-3-(2-(((R)-2-(5-fluoropyridin-3-yl)-2-hydroxyethyl)-amino)-2-methylpropyl)piperidine-1-carboxylate], the Emax at 10 µM in test [1] and in test [2] was more than 75% each time.
Regarding `CC(C)(C[C@@H]1CCCNC1)NC[C@H](O)c1cncc(F)c1` [Example 12, (R)-1-(5-Fluoropyridin-3-yl)-2-((2-methyl-1-((S)-piperidin-3-yl)-propan-2-yl)amino)ethan-1-ol], the Emax at 10 µM in test [1] was less than 25%; in test [2] it was more than 75%.
Take `CC(=O)N1CCC[C@@H](CC(C)(C)NC[C@H](O)c2cncc(F)c2)C1` [Example 13, 1-((S)-3-(2-(((R)-2-(5-Fluoropyridin-3-yl)-2-hydroxyethyl)amino)-2-methylpropyl)piperidin-1-yl)ethan-1-one dihydrochloride]: the Emax at 10 µM in test [1] was less than 25%; in test [2], more than 75%.
For `CC(C)(C[C@@H]1CCCN(S(C)(=O)=O)C1)NC[C@H](O)c1cncc(F)c1` [Example 14, (R)-1-(5-Fluoropyridin-3-yl)-2-((2-methyl-1-((S)-1-(methylsulfonyl)-piperidin-3-yl)propan-2-yl)amino)ethan-1-ol hydrochloride], in that order: less than 25% and 50 to 75%.
Consider `CC(C)(C[C@@H]1CCCN(C(=O)C(C)(C)C)C1)NC[C@H](O)c1cncc(F)c1` [Example 15, 1-((S)-3-(2-(((R)-2-(5-Fluoropyridin-3-yl)-2-hydroxyethyl)amino)-2-methylpropyl)piperidin-1-yl)-2,2-dimethylpropan-1-one], for which the Emax at 10 µM in test [1] was less than 25%; in test [2], more than 75%.
The matching figures for `CC(C)(C[C@@H]1CCCN(C(=O)C(F)(F)F)C1)NC[C@H](O)c1cncc(F)c1` [Example 16, 2,2,2-Trifluoro-1-((S)-3-(2-(((R)-2-(5-fluoropyridin-3-yl)-2-hydroxy-ethyl)amino)-2-methylpropyl)piperidin-1-yl)ethan-1-one]: less than 25% and more than 75%.
Regarding `COC(=O)N1CCC[C@@H](CC(C)(C)NC[C@H](O)c2cncc(F)c2)C1` [Example 17, Methyl (S)-3-(2-(((R)-2-(5-fluoropyridin-3-yl)-2-hydroxyethyl)amino)-2-methylpropyl)piperidine-1-carboxylate dihydrochloride], the Emax at 10 µM in test [1] and in test [2] was more than 75% each time.
`CN(C)C(=O)N1CCC[C@@H](CC(C)(C)NC[C@H](O)c2cncc(F)c2)C1` [Example 18, (S)-3-(2-(((R)-2-(5-Fluoropyridin-3-yl)-2-hydroxyethyl)amino)-2-methylpropyl)-N,N-dimethylpiperidine-1-carboxamide dihydrochloride]: the Emax at 10 µM in test [1] is less than 25%; in test [2], more than 75%.
For `CNC(=O)N1CCC[C@@H](CC(C)(C)NC[C@H](O)c2cncc(F)c2)C1` [Example 19, (S)-3-(2-(((R)-2-(5-Fluoropyridin-3-yl)-2-hydroxyethyl)amino)-2-methylpropyl)-N-methylpiperidine-1-carboxamide dihydrochloride], in that order: 50 to 75% and more than 75%.
The matching figures for `CC(C)(C[C@@H]1CCCN(C(=O)OC(C)(C)C)C1)NC[C@H](O)c1cccc(C(F)(F)F)n1` [Example 20, tert-Butyl (S)-3-(2-(((S)-2-hydroxy-2-(6-(trifluoromethyl)pyridin-2-yl)-ethyl)amino)-2-methylpropyl)piperidine-1-carboxylate]: less than 25% and more than 75%.
As to `CC(C)(C[C@@H]1CCCNC1)NC[C@H](O)c1cccc(C(F)(F)F)n1` [Example 21, (S)-2-((2-Methyl-1-((S)-piperidin-3-yl)propan-2-yl)amino)-1-(6-(trifluoromethyl)pyridin-2-yl)ethan-1-ol], the figures for the Emax at 10 µM in test [1] and in test [2] were less than 25% and 50 to 75%, respectively.
In the case of `CN1C[C@@H](CC(C)(C)NC[C@H](O)c2cccc(F)c2)CCC1=O` [Example 79, (R)-5-(2-(((R)-2-(3-Fluorophenyl)-2-hydroxyethyl)amino)-2-methyl-propyl)-1-methylpiperidin-2-one hydrochloride], in test [2], the Emax at 10 µM was more than 75%.
Same read-out and setting: with `CC(=O)NC1(C)CCN(CC(C)(C)NC[C@H](O)c2cccc(F)c2)CC1` [Example 87, (R)—N-(1-(2-((2-(3-Fluorophenyl)-2-hydroxyethyl)amino)-2-methyl-propyl)-4-methylpiperidin-4-yl)acetamide] the figure was 50 to 75%; with `CC(C)(CN1CCC(C)(NS(C)(=O)=O)CC1)NC[C@H](O)c1cccc(F)c1` [Example 88, (R)—N-(1-(2-((2-(3-Fluorophenyl)-2-hydroxyethyl)amino)-2-methyl-propyl)-4-methylpiperidin-4-yl)methanesulfonamide dihydrochloride], 50 to 75%.

The values above are taken from US20260242335A1, “HETEROCYCLOALKYL BETA-HYDROXY ALKYL AMINES FOR USE IN THE TREATMENT OF HYPERGLYCAEMIA AND DISORDERS CHARACTERISED BY HYPERGLYCAEMIA” (ATROGI AB, priority 2023, published 2026).
